One experiment concerns N27 cells. As to the kind of experiment: Cell viability (MTT) assay after PFF exposure. The class given is cell-based, rat. The settings on record: N27 cells after PFF (1 μg/ml) exposure for 24 h; compared to PFF only control. An excerpt:
Cell Viability Assay. The MTT assay is a colorimetric assay that is based on the conversion of water-soluble MTT (3-(4,5-dimethylthiazol-2-yl)-2,5-diphenyltetrazolium bromide) into formazan crystal by mitochondrial dehydrogenase enzymes, soluble in 100% DMSO. The resulting solution is purple in color, and the color intensity is proportional to the viable cells for each well in a 96-well plate. A variety of SENP-1 inhibitors, such as SUMO-2 aldehyde, Momordin lc, streptonigrin, hinokiflavone, oleanolic acid and siRNA of SENP-1, were treated in N27 cells after PFF (1 μg/ml) exposure for 24 h. After adding 5 mM MTT dye to cells, the color intensity in MTT assays was measured using a spectrophotometer (SpectraMax M5e, Molecular devices, Dover, USA), at 570 nm with a reference wavelength of 630 nm. The cells were incubated with the MTT reagent (ab211091, Abcam) at 37° C. for 3 h, followed by solubilizing the formazan crystals in solution.
In this study, numerous commercially available SENP-1 inhibitors were tested for the recovery effects from preformed fibrils of alpha-synuclein (PFF)-induced PD models in vitro. […]

The next experiment concerns PFF-injected old mice. As to the kind of experiment: Rotarod in PFF-injected mice. The class given is in vivo, mouse. The note with it: 10 and/or 50 mg/kg oral, vs PFF only. The method, then:
A mouse model of Parkinson's disease is C57BL/6 male or female mice (50% each) injected with 5 μg of mouse PFF at 12 months old, followed by a treatment below for 6-7 weeks: • 1) without PFF injection, followed by vehicle (control, n=7); • 2) PFF injection, followed by vehicle (PFF only: control, n=8); • 3) PFF injection, followed by daily 10 mg/kg Momordin gavage (n=7-8); • 4) PFF injection, followed by daily 50 mg/kg Momordin gavage (n=7-8).
Rotarod. Rotarod is a behavioral test used to measure motor functionality. For three consecutive days, all the mice were habituated on the rotating rod comprising a horizontal plane rotating at a speed of 4 rotations per minute (rpm), increasing by 2 rpm every minute for 10 min or until they fell off the rod at 20 rpm. The data were collected over three consecutive days where the animals were placed on the rod at 4 rpm, and the rod increased the speed by 1 rpm every 16 sec for 10 min or until the mouse fell off. A longer latency to fall indicates an improved motor functionality.
A general note: In the rotarod test animals must keep their balance on a rotating rod.

On to `CC1(C)CC[C@]2(C(=O)O)CC[C@]3(C)C(=CC[C@@H]4[C@@]5(C)CC[C@H](O[C@@H]6O[C@H](C(=O)O)[C@@H](O)[C@H](O[C@@H]7OC[C@@H](O)[C@H](O)[C@H]7O)[C@H]6O)C(C)(C)[C@@H]5CC[C@]43C)[C@@H]2C1` [Momordin lc], for which the “cell viability from PFF-mediated toxicity (MTT assay)” value in the experiment with N27 cells was “significantly enhanced the cell viability”. For the same compound, the mobility on rotarod entry in the experiment with PFF-injected old mice is given as “enhances the mobility on rotarod”.

Source of the values: US20260021167A1, “COMPOSITIONS AND METHODS FOR TREATING OR PREVENTING NEURODEGENERATIVE DISEASES” (Delaware State University, priority 2022, published 2026).
